From patent publication US20090156674A1, “Valnemulin Salts with Organic Acids” (priority 2005, published 2009)
Counter-ions that a name gives are not always drawn.

Key:
[1] = Stability of valnemulin acid addition salts in the pelleting procedure for animal feed; type: physicochemical; conditions: pelleting at 75° C.; wheat-based animal feed; 100 ppm valnemulin in the feed
Method: In order to test the stability of the valnemulin acid addition salts in animal feed, the calculated amount of the acid addition salt (corresponding to a target dose of 100 ppm) is added to ca. 4 kg of wheat-based animal feed and mixed in a high-speed laboratory mixer for 60 seconds to form a first premix (PM1). The ca. 4 kg of premix PM1 is then transferred to a horizontal mixer and mixed with 21 kg of the same feed for a further 6 minutes to form a further premix (PM2). The ca. 25 kg of premix PM2 is transferred to a vertical mixer and intimately mixed with a further 175 kg of the same animal feed for 8 minutes, whereupon a homogeneous, treated mixture is obtained, which contains valnemulin concentrations corresponding to the target dose of 100 ppm. Prior to further processing, samples of ca. 100 g each are taken from the upper, centre and lower part of the medicinal feed mixture, in order to test its homogeneity. In addition, further samples are taken randomly for use in stability tests. The finished, treated medicinal feed is now ready for pelleting. […] The 200 kg of finished medicinal feed is then fed continuously into the pelleting press of the feed mill over the course of ca. 20 mins. Afterwards, the pellets are dried in batches in a continuous stream of air, and cooled. To examine the homogeneity of the pelleted medicinal feed, several samples of ca. 100 g each are taken at the start, middle and end of the pelleting process. In addition, samples are taken in a random order from each batch, in order to test the stability in storage. […] In the following table 1, by way of example, the stabilities of different acid addition salts of valnemulin in the pelleting procedure for the animal feed are compared.

[2] = Stability of valnemulin during production and storage of feed pellets (background statements); type: physicochemical
Description: It has been shown that valnemulin is rather unstable when producing pelleted feed, particularly when in contact with the feed material, especially constituents of vegetable or animal origin. This leads to substantial losses already at the preparation stage. In the preparation of pelleted feed, the dried organic starting material of animal or vegetable origin is ground, mixed intimately with the admixtures, vitamins, trace elements and other additives, i.e. substantially homogenized, and then optionally moistened with ca. 5 to 10% by weight water and compressed into feed pellets at elevated temperatures ranging from ca. 60 to 100° C. at pressures of ca. 1 to 100 kbar. Short-term, local temperature peaks in the press, so-called flashes, even reach 200° C. for a short time. The retention time of the mass in the press is generally from ca. 5 to 180 seconds and depends inter alia on the size of the pellets.
Whereas valnemulin in the form of the dried, amorphous hydrochloride salt withstands these temperatures for a short time without significant decomposition and can be stored at room temperature even for a few months without any measurable loss of active ingredient, this active ingredient decomposes relatively rapidly under pressure and in intimate contact with animal or vegetable feed constituents and at the prevailing elevated temperatures. […]

Which “Loss of active substance in the pelleting procedure, average loss” value (“Loss of active substance” for short) [1] does the source give for `C=CC1(C)CC(OC(=O)CSC(C)(C)CNC(=O)C(N)C(C)C)C2(C)C(C)CCC3(CCC(=O)C32)C(C)C1O.O=C(O)C(O)C(O)C(=O)O` [valnemulin D-hydrogen tartrate, Valnemulin D-Hydrogen Tartrate] here?
Its value is 0.3%.

Which “Loss of active substance” value [1] does the source give for `C=C[C@]1(C)C[C@@H](OC(=O)CSC(C)(C)CNC(=O)[C@H](N)C(C)C)[C@]2(C)[C@H](C)CC[C@]3(CCC(=O)[C@H]32)[C@@H](C)[C@@H]1O` [valnemulin hydrochloride] here?
Its value is 11.6%.

With `C=C[C@]1(C)C[C@@H](OC(=O)CSC(C)(C)CNC(=O)[C@H](N)C(C)C)[C@]2(C)[C@H](C)CC[C@]3(CCC(=O)[C@H]32)[C@@H](C)[C@@H]1O.O=C(O)/C=C/C(=O)O` [valnemulin hydrogen fumarate, Valnemulin Hydrogen Fumarate] as the compound, how does the “Loss of active substance” value [1] read?
Its value is 0.2%.

With `C=C[C@]1(C)C[C@@H](OC(=O)CSC(C)(C)CNC(=O)C(N)C(C)C)[C@]2(C)C(C)CC[C@]3(CCC(=O)C32)[C@@H](C)[C@@H]1O` (some centres unmarked) [valnemulin, Valnemulin] as the compound, how does the “content of active ingredient in finished pellets on storage” value ([2]; finished pellets, room temperature, after three months) read?
Its value is “below 60%”.

What about the “active ingredient lost in compression into feed pellets” value ([2]; raised pressure and elevated temperature kept as short as possible, pellets immediately cooled to room temperature, contact with feed constituents) of the same compound?
Its value is “one quarter to one third”.
